From publication PMC6832219, “Synthesis of Novel Baicalein Amino Acid Derivatives and Biological Evaluation as Neuroprotective Agents” (Molecules, 2019)

Key:
injured SH-SY5Y cells [1] = experiment: Protective effect against tert-butyl hydroperoxide-induced SH-SY5Y neurotoxicity cells (MTT assay); format: cell-based; details: Homo sapiens;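 for Proliferation Rate (%): 0% equals CoCl2-injured cells and 100% equals NGF-treated cells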
Protocol: The protective effects of baicalein derivatives in vitro was evaluated against tert-butyl, hydroperoxide-induced, SH-SY5Y neurotoxicity cells using an MTT assay. In addition, their toxicity evaluation was tested on normal H9C2 cells. The resulting proliferation rates (%) at different concentrations, as well as their 50% effective concentrations (EC50) for protecting damaged SH-SY5Y cells of the baicalein amino acid derivatives, are summarized in Table 2.
The SH-SY5Y ([…]) and H9C2 ([…]) cell lines were obtained from the Chinese Academy of Medical Sciences and Peking Union Medical College. All of the cell lines were grown in dulbecco’s modified eagle medium (DMEM) with 10% (v/v) fetal bovine serum (FBS) and 1% (v/v) penicillin/streptomycin (Thermo Technologies, New York, NY, USA), under a humidified atmosphere containing 5% CO2 at 37 °C. The baicalein derivatives were dissolved in DMSO (Sigma, St. Louis, MO, USA) and added at various concentrations to the cell culture.
The protective effect of these compounds was evaluated on SH-SY5Y and H9C2 cell lines via the MTT method. The cells growing in the logarithmic phase were cultured in 96-well plates at a density 3 × 10^3 cells/well and incubated for 24 h. Then each well was treated with the required concentrations (50 µM concentrations, 25 µM concentrations, 12.5µM concentrations, 6.25 µM concentrations, and 3.125 µM concentrations) of baicalein derivatives, and incubated 36 h at 37 °C with 5% CO2. After that, the cells were induced by H2O2 (final concentration, […]) for 12 h. Control-differentiated cells were injected with new growth media at equal amounts. Before […] MTT solution (5 mg/mL) was added to each well, the cell culture fluid was discarded, and […] fresh cell culture fluid was added. The plate was incubated for a further 4 h at 37 °C. The cell supernatant medium was removed carefully, without disturbing the attached cells, and formazan crystals were solubilized by adding 150 μL DMSO into each well. The absorbance was measured at 490 nm with a plate reader (BIORAD 550 spectrophotometer, Bio-rad Life Science Development Ltd., Beijing, China). H2O2 was dissolved in DMEM medium. Wells without drugs were used as blanks. The EC50 values were defined as the concentrations that causes the maximum effect of 50%; IC50 values were defined as the concentration of compound which gives 50% growth inhibition, and were calculated using the GraphPad Prism 5. The proliferation rates of damaged SH-SY5Y cells were calculated in the following formula (1): [OD490 (compound) − OD490 (CoCl2)]/[OD490 (NGF) − OD490 (CoCl2)] × 100%(1) The EC50 values were using the equation −pEC50 = log Cmax − log 2 × (ΣP − 0.75 + 0.25Pmax + 0.25Pmin)(2) where Cmax is the maximum concentration, ΣP is the sum of proliferation rates, Pmax is the maximum value of the proliferation rate, and Pmin is the minimum value of the proliferation rate. Cell viability was expressed as a percentage of the control.

injured SH-SY5Y cells [2] = experiment: Morphological detection of apoptosis using DAPI staining; format: cell-based; details: 6.25, 12.5, and 25 μM, 72 h
Protocol: To further study the mechanism of growth inhibition of compound 8 on injured SH-SY5Y cells, DAPI staining was performed. Injured SH-SY5Y cells were treated with compound 8 at […] concentrations for 72 h. […] When the concentration of the drug increased, the shape of the cells became regular.
SH-SY5Y cells in logarithmic growth phase were seeded in 12-well plates (2.4 × 10^4 cells/well). After incubation for 24 h at 37 °C in a humidified atmosphere with 5% CO2, various concentrations of compound 8 was added to the cultures, and the plate was incubated for further 72 h. After discarding the cell culture medium, washing twice with PBS, and fixing with 4% paraformaldehyde for 10 min, 4′,6-diamidino-2-phenylindole (DAPI, 1 mg/mL, Molecular Probes/Invitrogen Life Technologies, Carlsbad, CA, USA), staining was performed for 5 min in the dark, and nuclear fragments were observed under fluorescence microscope.
Figure 3 Morphological detection of apoptosis using 4′,6-diamidino-2-phenylindole (DAPI) staining (200×) on injured SH-SY5Y cells treated with compound 8, (a) control group, (b) injury group, (c) 6.25 μM, (d) 12.5 μM, and (e) 25 μM.

O=C(NC(Cc1ccccc1)C(=O)Oc1c(O)cc2oc(-c3ccccc3)cc(=O)c2c1O)OCc1ccccc1 (stereo not shown) [Compound 8, 5,7-dihydroxy-4-oxo-2-phenyl-4H-chromen-6-yl 2-{[(benzyloxy)carbonyl]amino}-3-phenyl-proppanpate]
viability at 3.125 µM (injured SH-SY5Y cells [1]; 3.125 µM, injured SH-SY5Y cells, read-out: Proliferation Rate (%)): 52.5%
viability at 6.25 µM (injured SH-SY5Y cells [1]; 6.25 µM, injured SH-SY5Y cells, read-out: Proliferation Rate (%)): 75.1%
viability at 12.5 µM (injured SH-SY5Y cells [1]; 12.5 µM, injured SH-SY5Y cells, read-out: Proliferation Rate (%)): 83.1%
viability at 25 µM (injured SH-SY5Y cells [1]; 25 µM, injured SH-SY5Y cells, read-out: Proliferation Rate (%)): 87.3%
viability at 50 µM (injured SH-SY5Y cells [1]; 50 µM, injured SH-SY5Y cells, read-out: Proliferation Rate (%)): 94%
EC50 (injured SH-SY5Y cells [1]; tert-butyl hydroperoxide-induced SH-SY5Y neurotoxicity, read-out: EC50 for protecting injured SH-SY5Y cells): 4.31 µM
Nuclear morphology / apoptosis (DAPI staining) (injured SH-SY5Y cells [2]): protects injured SH-SY5Y cells from apoptosis
